Three compounds from US20230243815A1, “AN APPARATUS COMPRISING MICROFLUIDIC PROTEIN-BASED SENSORS AND METHODS OF USING SAME” (UNIVERSITY OF MARYLAND, BALTIMORE COUNTY, priority 2020, published 2023) can be followed below.

This assay addresses branched-chain amino acid binding protein (Escherichia coli, UniProt P0AD96). The assay can be described thus: Binding of amino acids to branched-chain amino acid binding protein biosensor (microfluidic column sensor). As to conditions: binding affinity of the analyte to the branched-chain amino acid binding protein biosensor; FIG. 9. The text has this:
FIG. 9(A) illustrates amino acids that bind at varying affinities to a microfluidic column biosensor, where F/F0 is the fluorescence intensity ratio.
Microfluidic column sensors are also useful when the biosensor detects more than one analyte but with different binding affinities. […] This is shown in FIG. 9, where a mixture of these amino acids can be separately detected over the length of the microfluidic column.

SMILES strings stand for the structures.

Chain of branched-chain amino acid binding protein (P0AD96 24-367): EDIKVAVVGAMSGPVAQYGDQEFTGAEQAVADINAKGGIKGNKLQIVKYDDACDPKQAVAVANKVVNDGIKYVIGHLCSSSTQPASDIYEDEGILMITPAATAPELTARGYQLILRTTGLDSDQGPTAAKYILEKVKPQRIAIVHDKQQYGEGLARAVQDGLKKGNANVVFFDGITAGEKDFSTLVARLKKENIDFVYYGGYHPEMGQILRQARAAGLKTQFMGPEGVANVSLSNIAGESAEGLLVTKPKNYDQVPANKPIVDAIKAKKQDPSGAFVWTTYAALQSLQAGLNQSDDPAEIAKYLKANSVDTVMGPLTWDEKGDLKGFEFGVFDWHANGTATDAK

The Kd is a measure of binding affinity in units of concentration. Read a low Kd as higher affinity. As for `CC[C@H](C)[C@H](N)C(=O)O` [isoleucine], the Kd was determined as 68 µM.
In turn, `CC(C)C[C@H](N)C(=O)O` [leucine] returned a Kd of 58 µM.
`CC(C)[C@H](N)C(=O)O` [valine]: the Kd came to 135 µM.
